From patent US9580758B2, “System and method for the detection and treatment of infection by a microbial agent associated with HIV infection” (priority 2013, dated 2017)

Tested on: Rickettsiales-like agent
Assay type: cell-based

Compound: O=C(N[C@H](CO)[C@H](O)c1ccc([N+](=O)[O-])cc1)C(Cl)Cl [chloramphenicol]
- sensitivity of the 400 bp sequence (grown with the Rickettsiales-like agent) to treatment in vitro: sensitive
